Measurements: ChEMBL document CHEMBL5143595, “Expanding the structure-activity relationship of cytotoxic diphenyl macrocycles” (Bioorg Med Chem Lett, 2022)

Assays:
U-251 [1] = experiment: Antiproliferative activity against human U-251 cells assessed as inhibition of cell growth at 10 uM incubated for 48 hrs by SRB assay relative to control; type: functional; parameters: scale not given: the % may be the effect or the level left
PC-3 = experiment: Antiproliferative activity against human PC-3 cells assessed as inhibition of cell growth at 10 uM incubated for 48 hrs by SRB assay relative to control; type: functional; parameters: scale not given: the % may be the effect or the level left
K562 [2] = experiment: Antiproliferative activity against human K562 cells assessed as inhibition of cell growth at 10 uM incubated for 48 hrs by SRB assay relative to control; type: functional; parameters: scale not given: the % may be the effect or the level left
HCT-15 = experiment: Antiproliferative activity against human HCT-15 cells assessed as inhibition of cell growth at 10 uM incubated for 48 hrs by SRB assay relative to control; type: functional; parameters: scale not given: the % may be the effect or the level left
MCF7 = experiment: Antiproliferative activity against human MCF7 cells assessed as inhibition of cell growth at 10 uM incubated for 48 hrs by SRB assay relative to control; type: functional; parameters: scale not given: the % may be the effect or the level left
SK-LU-1 [3] = experiment: Antiproliferative activity against human SK-LU-1 cells assessed as inhibition of cell growth at 10 uM incubated for 48 hrs by SRB assay relative to control; type: functional; parameters: scale not given: the % may be the effect or the level left
[4] = Antiproliferative activity against African green monkey COS-7 cells assessed as inhibition of cell growth at 10 uM incubated for 48 hrs by SRB assay relative to control; type: toxicity, cell-based; conditions: chlorocebus aethiops, read-out: Activity
U-251 [5] = experiment: Antiproliferative activity against human U-251 cells assessed as inhibition of cell growth incubated for 48 hrs by SRB assay; type: functional, cell-based; conditions: U-251, 48 h
K562 [6] = experiment: Antiproliferative activity against human K562 cells assessed as inhibition of cell growth incubated for 48 hrs by SRB assay; type: functional, cell-based; conditions: K562, 48 h
SK-LU-1 [7] = experiment: Antiproliferative activity against human SK-LU-1 cells assessed as inhibition of cell growth incubated for 48 hrs by SRB assay; type: functional, cell-based; conditions: SK-LU-1, 48 h

SMILES | Activity (U-251 [1]) [%] | Activity (PC-3) [%] | Activity (K562 [2]) [%] | Activity (HCT-15) [%] | Activity (MCF7) [%] | Activity (SK-LU-1 [3]) [%] | inhibition at 48 h, 10 µM [4] [%] | IC50 (U-251 [5]) [µM] | IC50 (K562 [6]) [µM] | IC50 (SK-LU-1 [7]) [µM]
CCCCCCCCNC(=O)CN1CCCCN(CC(=O)NC(C)(C)C)C(=O)c2cccc(c2)-c2cccc(c2)C1=O | 20.5 | 46.5 | 24.4 | 26.7 | 31.7 | 9.6 | 19.7 | – | – | –
CCCCCCCCCCCNC(=O)CN1CCCCN(CC(=O)NC(C)(C)C)C(=O)c2cccc(c2)-c2cccc(c2)C1=O | 10.8 | 44.4 | 42 | 51 | 5.3 | 23.2 | 28.1 | – | – | –
CCCCCCNC(=O)CN1CCCCN(CC(=O)NC(C)(C)C)C(=O)c2cccc(c2)-c2cccc(c2)C1=O | 58.5 | 19.3 | 60.1 | 32.4 | – | 74.9 | 40 | – | – | –
CCCCCCCCCCNC(=O)CN1CCCCN(CC(=O)NC(C)(C)C)C(=O)c2cccc(c2)-c2ccc(O)c(c2)C1=O | 49.3 | 19.5 | 55.3 | 28.6 | 27.1 | 27.7 | 41.8 | – | – | –
CCCCCCCCCNC(=O)CN1CCCCN(CC(=O)NC(C)(C)C)C(=O)c2cccc(c2)-c2cccc(c2)C1=O | 16 | 66.9 | 44 | 55.1 | 45.6 | 45.3 | 52.4 | – | – | –
CCCCCCCCCCCCNC(=O)CN1CCCCN(CC(=O)NC(C)(C)C)C(=O)c2cccc(c2)-c2cccc(c2)C1=O | – | – | – | – | – | – | – | 5.9 | 4 | 7.6
CCCCCCCCCCNC(=O)CN1CCCCN(CC(=O)NC(C)(C)C)C(=O)c2cccc(c2)-c2cccc(c2)C1=O | 16.1 | 59.9 | 38 | 65.5 | 72.1 | 50.4 | 17.8 | – | – | –
CCCCCCCNC(=O)CN1CCCCN(CC(=O)NC(C)(C)C)C(=O)c2cccc(c2)-c2cccc(c2)C1=O | 99.2 | 97.2 | 79.3 | 77.9 | 70.9 | 88.6 | 7.6 | – | 8.2 | 4.7
CCCCCCCCCCCCNC(=O)C(c1ccoc1)N1CCCCN(CC(=O)NC(C)(C)C)C(=O)c2cccc(c2)-c2cccc(c2)C1=O (racemic) | 27.5 | 48.9 | 48.8 | 34.3 | 66.1 | 32.3 | 27.5 | – | – | –
CCCCCCCCCCCCNC(=O)C(c1ccc(SC)cc1)N1CCCCN(CC(=O)NC(C)(C)C)C(=O)c2cccc(c2)-c2cccc(c2)C1=O (racemic) | 20 | 28.5 | 34.9 | 18.3 | 45 | 45.6 | 35.5 | – | – | –
CCCCCCCCCCCCNC(=O)C(c1ccc(O)cc1OC)N1CCCCN(CC(=O)NC(C)(C)C)C(=O)c2cccc(c2)-c2cccc(c2)C1=O (racemic) | 48.5 | 37.6 | 60.9 | 27.3 | 38.9 | 45.1 | 26.1 | – | – | –
CCCCCCCCCCCCNC(=O)C(c1ccc([N+](=O)[O-])cc1)N1CCCCN(CC(=O)NC(C)(C)C)C(=O)c2cccc(c2)-c2cccc(c2)C1=O (racemic) | 34.5 | 17.1 | 29 | 22.8 | 31.2 | 45.2 | 17.5 | – | – | –
CCCCCCCCCCCCNC(=O)C(c1cc(OC)c(OC)c(OC)c1)N1CCCCN(CC(=O)NC(C)(C)C)C(=O)c2cccc(c2)-c2cccc(c2)C1=O (racemic) | 11.4 | 33.9 | 24 | 31.5 | – | 34.4 | 25.6 | – | – | –
CCCCCCCCCCCCNC(=O)C(c1ccccc1)N1CCCCN(CC(=O)NC(C)(C)C)C(=O)c2cccc(c2)-c2cccc(c2)C1=O (racemic) | – | 32.6 | 41.3 | 27.7 | 29.5 | 28.5 | 21.1 | – | – | –
CCCCCCCCCCNC(=O)C(c1ccc(F)cc1)N1CCCCN(CC(=O)NC(C)(C)C)C(=O)c2cccc(c2)-c2cccc(c2)C1=O (racemic) | 19.3 | 15.1 | 64 | 67.2 | 47.3 | 31.8 | 24.3 | – | – | –
CCCCCCCCCCCCNC(=O)C(c1ccc(Cl)cc1)N1CCCCN(CC(=O)NC(C)(C)C)C(=O)c2cccc(c2)-c2cccc(c2)C1=O (racemic) | 71.3 | 14.4 | 42.6 | 24.3 | 72.2 | 52.3 | 42.2 | – | – | –
CCCCCCCCCCCCNC(=O)C(c1ccc(C)cc1)N1CCCCN(CC(=O)NC(C)(C)C)C(=O)c2cccc(c2)-c2cccc(c2)C1=O (racemic) | 48 | 21.1 | 40.7 | 19.9 | 4.8 | 32.4 | 34.8 | – | – | –
CCCCCCCCCCCCNC(=O)C(c1ccco1)N1CCCCN(CC(=O)NC(C)(C)C)C(=O)c2cccc(c2)-c2cccc(c2)C1=O (racemic) | 21.9 | 13.5 | 19.8 | 26.8 | 51.3 | 34.9 | 35.8 | – | – | –
CCCCCCCCCCCCNC(=O)C(c1cc(C)ccc1F)N1CCCCN(CC(=O)NC(C)(C)C)C(=O)c2cccc(c2)-c2cccc(c2)C1=O (racemic) | 15.7 | 9.5 | 29 | 31.7 | 15.2 | 3.1 | 20.2 | – | – | –
CCCCCCCCCCCCNC(=O)C(c1ccc(OC)cc1)N1CCCCN(CC(=O)NC(C)(C)C)C(=O)c2cccc(c2)-c2cccc(c2)C1=O (racemic) | 50.1 | 46.2 | 56.1 | 22 | 23.6 | 37.8 | 33 | – | – | –
CCCCCCCCCCCCNC(=O)C(c1ccc(C(F)(F)F)cc1)N1CCCCN(CC(=O)NC(C)(C)C)C(=O)c2cccc(c2)-c2cccc(c2)C1=O (racemic) | 47.2 | 18.6 | 100 | 30.3 | 75.3 | 76.5 | 38 | – | – | –
CCCCCCCCCCCCNC(=O)C(c1ccc(OC)cc1C)N1CCCCN(CC(=O)NC(C)(C)C)C(=O)c2cccc(c2)-c2cccc(c2)C1=O (racemic) | 23.1 | – | 5.2 | 28 | – | 29 | 31.3 | – | – | –
CCCCCCCCCCCCNC(=O)C(c1ccc(F)cc1)N1CCCCN(CC(=O)NC(C)(C)C)C(=O)c2cccc(c2)-c2cccc(c2)C1=O (racemic) | 76.9 | 21.3 | 59.6 | 42.9 | 41.5 | 18.8 | 40.8 | – | – | –
CCCCCCCCCCNC(=O)C(c1ccoc1)N1CCCCN(CC(=O)NC(C)(C)C)C(=O)c2cccc(c2)-c2cccc(c2)C1=O (racemic) | 27.5 | 35 | 36.6 | 38.5 | 29.5 | 18.8 | 22.8 | – | – | –
CCCCCCCCCCNC(=O)C(c1ccco1)N1CCCCN(CC(=O)NC(C)(C)C)C(=O)c2cccc(c2)-c2cccc(c2)C1=O (racemic) | 25.5 | 25.8 | 28 | 26 | 25.7 | 25.3 | 21.6 | – | – | –
COc1cc([C@@H]2c3cc4c(cc3[C@@H](O[C@@H]3O[C@@H]5CO[C@@H](C)O[C@H]5[C@H](O)[C@H]3O)[C@H]3COC(=O)[C@H]23)OCO4)cc(OC)c1O [ETOPOSIDE] | – | – | – | – | – | – | – | – | 11.3 | –
